In patent publication US8791143B2, “Anthranilic diamide derivatives having cyclic side-chains” (priority 2010, dated 2014):
Like-named read-outs stand apart in the source and are kept apart here.

Assays:
Lucilia cuprina larvae = experiment: Lucilia cuprina test (LUCICU); type: in vivo; settings: 1152 h, read-out: activity (kill in %)
Procedure: (§1) Solvent: dimethyl sulphoxide
Vessels containing horse meat treated with the active ingredient preparation of the desired concentration are populated with about 20 Lucilia cuprina larvae.
(§2) After 48 days, the kill in % is determined.

adult Musca domestica = experiment: Musca domestica test (MUSCDO); type: in vivo; settings: 1152 h, read-out: activity (kill in %)
Procedure: as §1
Vessels containing a sponge treated with the active compound preparation of the desired concentration are populated with adult Musca domestica.
as §2

[1] = log P by HPLC on reversed-phase columns (EEC Directive 79/831 Annex V.A8); type: physicochemical
[2] = test system: caterpillars of the armyworm (Spodoptera frugiperda); experiment: Spodoptera frugiperda test (SPODFR spray treatment); type: in vivo; settings: Spodoptera frugiperda, 168 h; for pest or weed control at 100 g/ha / pest or weed control at 500 g/ha: read-out: activity in % (caterpillars killed); for pest or weed control at 500 g/ha: application rate 500 g/ha
[3] = test system: green peach aphid (Myzus persicae); experiment: Myzus test (MYZUPE spray treatment); type: in vivo; settings: Myzus persicae, 144 h; for pest or weed control at 100 g/ha / pest or weed control at 500 g/ha: read-out: activity in % (aphids killed); for pest or weed control at 500 g/ha: application rate 500 g/ha
Boophilus microplus = Boophilus microplus test (BOOPMI injection); type: in vivo; settings: Rhipicephalus microplus, 168 h; 20 μg/animal, injection into the abdomen, after 7 days; read-out: activity in % (no fertile eggs laid)
Procedure: as §1
The active compound solution is injected into the abdomen (Boophilus microplus), and the animals are transferred into dishes and stored in a climate-controlled room.
The activity is assessed by […] of fertile eggs. 100% means that none of the ticks has laid any fertile eggs.

[4] = test system: larvae of the mustard beetle (Phaedon cochleariae); experiment: Phaedon test (PHAECO spray treatment); settings: Phaedon cochleariae, 168 h, read-out: activity in % (beetle larvae killed)
[5] = reversed-phase C18 HPLC column, pH 2.7, HPLC reversed-phase C18, acidic range pH 2.7 (HCOOH), only or first value of the cell, read-out: log P
[6] = application rate 100 g/ha, after 7 days
[7] = application rate 100 g/ha, after 6 days

Structure (SMILES) | chromatographic logP [1, 5] | pest or weed control at 100 ppm (Lucilia cuprina larvae; 100 ppm, after 48 days) [%] | pest or weed control at 100 ppm (adult Musca domestica; 100 ppm, after 48 days) [%] | pest or weed control at 100 g/ha [2, 6] [%] | pest or weed control at 100 g/ha [3, 7] [%] | pest or weed control at 0.02 mg (Boophilus microplus) [%] | pest or weed control at 100 g/ha [4] [%] | pest or weed control at 20 ppm (adult Musca domestica; after 48 days) [%] | pest or weed control at 500 g/ha ([2]; after 7 days) [%] | pest or weed control at 500 g/ha ([3]; after 6 days) [%] | pest or weed control at 500 g/ha [4] [%] | inhibition at 100 g/ha ([2]; 100 g/ha, 7 d, comparison with prior art) [%] | inhibition at 100 g/ha ([3]; 100 g/ha, 6 d, comparison with prior art) [%] | pest or weed control at 100 ppm (Lucilia cuprina larvae) [%] | pest or weed control at 100 ppm (adult Musca domestica) [%] | log P (second value after the slash) ([1]; pH 2.7) | chromatographic logP ([1]; pH 2.7, log P) | pest or weed control at 100 g/ha [2] [%] | pest or weed control at 100 g/ha [3] [%]
Cc1cc(C#N)cc(C(=O)NC2CCN(Cc3ccccc3)C2)c1NC(=O)c1cc(Cn2nnc(C(F)(F)F)n2)nn1-c1ncccc1Cl (stereo not drawn) [Example 30] | 1.9 | 100 |  |  |  | 100 |  | 80 | 100 | 100 | 100 |  |  |  |  |  |  |  | 
Cc1cc(Cl)cc(C(=O)NC2CCS(=O)(=O)C2)c1NC(=O)c1cc(Cn2nnc(C(F)(F)C(F)(F)F)n2)nn1-c1ncccc1Cl (stereo not drawn) [Example 37] | 3.13 | 100 | 80 |  |  | 100 |  |  | 100 | 100 | 100 |  |  |  |  |  |  |  | 
Cc1cc(C#N)cc(C(=O)NC2CCS(=O)(=O)C2)c1NC(=O)c1cc(Cn2nnc(C(F)(F)C(F)(F)F)n2)nn1-c1ncccc1Cl (stereo not drawn) [Example 38] | 2.82 | 100 | 100 |  |  | 100 |  |  | 100 | 100 | 100 |  |  |  |  |  |  |  | 
Cc1cc(Cl)cc(C(=O)N[C@@H]2CCOC2=O)c1NC(=O)c1cc(Cn2nnc(C(F)(F)F)n2)nn1-c1ncccc1Cl [Example 42] |  |  |  |  |  | 100 | 100 |  |  |  |  |  |  | 100 | 90 | 2.53 | 2.84 | 100 | 100
Cc1cc(C#N)cc(C(=O)NC2(c3cccc(C(F)(F)F)c3)CC2)c1NC(=O)c1cc(Cn2nnc(C(F)(F)F)n2)nn1-c1ncccc1Cl [Example 65] | 3.97 | 100 |  | 100 | 90 | 100 | 100 | 80 |  |  |  |  |  |  |  |  |  |  | 

More lines, main results first:

chromatographic logP [1, 5] | Structure (SMILES) | pest or weed control at 100 ppm (Lucilia cuprina larvae; 100 ppm, after 48 days) [%] | pest or weed control at 100 ppm (adult Musca domestica; 100 ppm, after 48 days) [%] | pest or weed control at 100 g/ha [2, 6] [%] | pest or weed control at 100 g/ha [3, 7] [%] | pest or weed control at 0.02 mg (Boophilus microplus) [%] | pest or weed control at 100 g/ha [4] [%] | pest or weed control at 20 ppm (adult Musca domestica; after 48 days) [%] | pest or weed control at 500 g/ha ([2]; after 7 days) [%] | pest or weed control at 500 g/ha ([3]; after 6 days) [%] | pest or weed control at 500 g/ha [4] [%] | inhibition at 100 g/ha ([2]; 100 g/ha, 7 d, comparison with prior art) [%] | inhibition at 100 g/ha ([3]; 100 g/ha, 6 d, comparison with prior art) [%] | pest or weed control at 100 ppm (Lucilia cuprina larvae) [%] | pest or weed control at 100 ppm (adult Musca domestica) [%] | log P (second value after the slash) ([1]; pH 2.7) | chromatographic logP ([1]; pH 2.7, log P) | pest or weed control at 100 g/ha [2] [%] | pest or weed control at 100 g/ha [3] [%]
2.85 | Cc1cc(C#N)cc(C(=O)NC2COC2)c1NC(=O)c1cc(Cn2nnc(C(F)(F)F)n2)nn1-c1ccccc1Cl [Example 26] | 100 | 80 | 100 | 100 | 100 | 100 |  |  |  |  |  |  |  |  |  |  |  | 
2.79 | Cc1cc(C#N)cc(C(=O)NC2COC2)c1NC(=O)c1cc(Cn2nnc(C(F)(F)F)n2)nn1-c1c(F)cccc1F [Example 27] | 100 |  | 100 | 80 | 100 | 100 | 100 |  |  |  |  |  |  |  |  |  |  | 
2.82 | Cc1cc(C#N)cc(C(=O)NC2CCS(=O)(=O)C2)c1NC(=O)c1cc(Cn2nnc(C(F)(F)F)n2)nn1-c1ccccc1Cl (stereo not drawn) [Example 36] | 100 | 80 | 100 | 100 | 100 | 100 |  |  |  |  | 100 | 100 |  |  |  |  |  | 
2.9 | Cc1cc(C#N)cc(C(=O)N[C@@H]2CCOC2=O)c1NC(=O)c1cc(Cn2nnc(C(F)(F)C(F)(F)F)n2)nn1-c1ncccc1Cl [Example 44] | 100 | 100 | 100 | 90 | 100 | 100 |  |  |  |  |  |  |  |  |  |  |  | 
